Where a chain is given by its changes, count along the chain named.
Legend:
WT HDAC8 (Zn2+) = target: T1, WT HDAC8 (Zn2+) (Homo sapiens, UniProt Q9BY41); test: HDAC8 time-course inhibition; assay type: biochemical
T1 sequence (Q9BY41 1-377): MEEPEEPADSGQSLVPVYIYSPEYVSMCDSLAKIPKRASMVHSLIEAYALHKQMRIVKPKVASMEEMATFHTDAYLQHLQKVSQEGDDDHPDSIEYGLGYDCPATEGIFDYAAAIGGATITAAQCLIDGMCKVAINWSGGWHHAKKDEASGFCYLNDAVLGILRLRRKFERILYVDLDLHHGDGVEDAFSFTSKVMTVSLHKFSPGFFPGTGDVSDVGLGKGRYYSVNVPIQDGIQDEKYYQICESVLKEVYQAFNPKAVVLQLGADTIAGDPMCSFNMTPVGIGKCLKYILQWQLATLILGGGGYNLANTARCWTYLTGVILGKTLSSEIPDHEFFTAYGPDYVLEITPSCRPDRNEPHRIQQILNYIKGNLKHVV

HH (CTCL) cells = test: MTS cell proliferation assay; assay type: cell-based
[1] = system: tubulin acetylation in Jurkat cells; test: western blot analysis of tubulin acetylation; assay type: cell-based; settings: 6 and 20 μM, 4 h
reactivity with GSH = assay type: physicochemical; settings: GSH 2 mM, 2 equiv, 50 mM HEPES pH 7.4, 2 h at 37 °C
human plasma stability = assay type: in vitro ADME; settings: 1 h, 37 °C
[2] = system: tubulin acetylation in HH cells; test: western blot analysis of tubulin acetylation; assay type: cell-based; settings: 6 and 20 μM, 4 h
[3] = stability in the presence of assay components BSA or trypsin; assay type: physicochemical; settings: BSA (5 mg/mL) or trypsin (5 mg/mL), 37 °C, 2 h; data not shown
[4] = aqueous stability under simulated physiological conditions; assay type: physicochemical; settings: 50 mM HEPES, pH 7.4, 37 °C, 24 h
C153A HDAC8 = target: T2, C153A HDAC8 (Homo sapiens, UniProt Q9BY41, C153A); test: HDAC8 time-course inhibition; settings: SAHA 0-8 μM, SAHA-OBn 0-10 μM (Figure S8)
T2 sequence (Q9BY41 1-377 C153A): T1 sequence (Q9BY41 1-377) with C153A

maximal rate constant for inactivation (WT HDAC8 (Zn2+); at saturating SAHA-TAP) [s^–1]	time of activity loss on preincubation of enzyme with inhibitor (WT HDAC8 (Zn2+); preincubation, data not shown) [h]	reactivity with GSH (in words) (reactivity with GSH)	stable in the presence of assay components [3] [%]	stable to hydrolysis in the absence of thiols [4] [%]	inhibition of HDAC8 activity (in words) (WT HDAC8 (Zn2+); inhibitor 2–10 μM)	SMILES	less potent than SAHA in cells (HH (CTCL) cells; HH and Jurkat cells)	tubulin acetylation (western blot) [1]	percent parent compound remaining (human plasma stability)	tubulin acetylation (western blot) [2]	effect on cell proliferation (in words) (HH (CTCL) cells; all cells studied (HH, Jurkat, NIH/3T3))	inhibition of HDAC8 (WT HDAC8 (Zn2+)) [%]	inhibition of C153A HDAC8 (in words) (C153A HDAC8)
0.0013	≤ 0.5	reacts rapidly with GSH	> 95	> 97		CC1=C(C)C(=O)C(CONC(=O)CCCCCCC(=O)Nc2ccccc2)=C(C)C1=O [SAHA-TAP]	3–4 fold	increased tubulin acetylation	Approximately 72%	increased tubulin acetylation			
		no change in the HPLC chromatogram			does not inhibit	O=C(CCCCCCC(=O)Nc1ccccc1)NOCc1ccccc1 [SAHA-OBn]					unaffected		
						O=C(CCCCCCC(=O)Nc1ccccc1)NO [SAHA, suberoylanilide hydroxamic acid, reference compound]			~60%			> 90	susceptible to inhibition
